Type in all cases: biochemical, human
Assay [1] concerns blood immediately after collected from a normal person. In words: Normal blood coagulation time. The note with it: for Normal blood coagulation time: standard control 42.5. As to the method:
(3) Normal Blood Coagulation Time (Second):
The sulfated polysaccharide 50 μl was separately put (the concentration was adjusted so that the final concentration was a measured concentration) in advance into plastic test tubes (3.3 ml blood collected tube, manufactured by IWAKI Co., Ltd.), and each 1 ml of blood immediately after collected from a normal person was put into the test tubes containing the sulfated polysaccharide and quickly mixed, and the test tubes were repetitively inclined to measure time (second) in which the fluidity disappeared.

Assay [2] deals with intrinsic pathway coagulation. Briefly: Activated partial thromboplastin time (APTT). An excerpt: (4) Activated Partial Thromboplastin Time (APTT):
The present method is a method for inspecting dynamics of intrinsic pathway coagulation. The present method has sensitivity to qualitative and quantitative abnormality in the factor XII, the factor XI, high molecular weight kininogen, prekallikrein, the factor IX, the factor VIII, the factor X, the factor V, the factor II (prothrombin) and the factor I (fibrinogen). First, normal (normal volunteer) blood citrate-collected (collected in a plastic test tube charged with 3.13 wt % sodium citrate of 1/10 volume) was subjected to centrifugal separation at 3000 rpm for 10 minutes to obtain supernatant plasma. The APTT time was obtained by mixing plasma for inspection with an APTT reagent and then measuring fibrin-depositing time (second) after adding a calcium chloride solution (using an automatic measuring apparatus). The sulfated polysaccharide was added to the plasma for inspection in an addition concentration of 0.001 to 1 mg/ml, and normal plasma was used for a standard control.

Assay [3] relates to extrinsic pathway coagulation. Briefly: Prothrombin time (PT). Particulars: for PT: standard control 12.6. An excerpt:
(5) Prothrombin Time (PT):
The present method is a method for inspecting dynamics of extrinsic pathway coagulation. The present method has sensitivity to qualitative and quantitative abnormality in the factor II (prothrombin), the factor V, the factor VII, the factor X and the factor I (fibrinogen), and it is scarcely influenced by the […] and the factor VIII. First, normal (normal volunteer) blood citrate-collected (collected in a plastic test tube charged with 3.13 wt % sodium citrate of 1/10 volume) was subjected to centrifugal separation at 3000 rpm for 10 minutes to obtain supernatant plasma. The PT time was obtained by mixing plasma for inspection with a PT reagent (a mixed solution of tissue thromboplastin and calcium chloride) to measure fibrin-depositing time (second) (using an automatic measuring apparatus). The sample of the sulfated polysaccharide was added to the plasma for inspection in an addition concentration of 0.001 to 1 mg/ml, and normal plasma was used for a standard control.

Setting [4] is: addition concentration 0.001 mg/ml.
Where [5] appears, read: addition concentration 0.01 mg/ml.
Setting [6] is: addition concentration 0.1 mg/ml.
[7] abbreviates: addition concentration 0.001 mg/ml in normal plasma, standard control 35.
The mark [8] stands for this setting: addition concentration 0.01 mg/ml in normal plasma, standard control 35.
Where [9] appears, read: addition concentration 0.1 mg/ml in normal plasma, standard control 35.
The mark [10] stands for this setting: addition concentration 1 mg/ml in normal plasma, standard control 35 (30 in Example 1).
[11] abbreviates: addition concentration 0.001 mg/ml in normal plasma.
Setting [12] is: addition concentration 0.01 mg/ml in normal plasma.
Setting [13] is: addition concentration 0.1 mg/ml in normal plasma.
The mark [14] stands for this setting: addition concentration 1 mg/ml in normal plasma.

Regarding gellan sulfate [Example 4], the “Normal blood coagulation time” value in assay [1] (setting [4]) is 39.9 min; in assay [1] (setting [5]), 72 min; in assay [1] (setting [6]), at least 600 min; in assay [1] (addition concentration 1 mg/ml), at least 600 min. Besides, the APTT is 45 s in assay [2] (setting [7]), 45 s in assay [2] (setting [8]), at least 300 s in assay [2] (setting [9]) and at least 300 s in assay [2] (setting [10]). In addition, the PT in assay [3] (setting [11]) is 13 s; in assay [3] (setting [12]), 12 s; in assay [3] (setting [13]), 14 s; in assay [3] (setting [14]), at least 300 s.

As for gellan sulfate [Example 1], in assay [2] (setting [10]), the APTT was 95 s. Besides, in assay [3] (gellan sulfate added to plasma, versus sample without gellan sulfate), the “PT time, extension (in words)” value is given as “significant extension of the time was not observed”.

On to heparin [reference compound], for which the “Normal blood coagulation time” value in assay [1] (setting [4]) is 105.6 min; in assay [1] (setting [5]), at least 600 min; in assay [1] (setting [6]) it was at least 600 min; in assay [1] (addition concentration 1 mg/ml), at least 600 min. The APTT in assay [2] (setting [7]) is 50 s; in assay [2] (setting [8]) it was at least 300 s; in assay [2] (setting [9]), at least 300 s; in assay [2] (setting [10]), at least 300 s. Also, the PT was 13 s in assay [3] (setting [11]), 13 s in assay [3] (setting [12]), at least 300 s in assay [3] (setting [13]) and at least 300 s in assay [3] (setting [14]).

gellan sulfate [Example 2]: the “Normal blood coagulation time” value in assay [1] (setting [4]) was 54 min; in assay [1] (setting [5]) it was 93 min; in assay [1] (setting [6]), 230 min; in assay [1] (addition concentration 1 mg/ml), at least 600 min. Further, the APTT was 38.1 s in assay [2] (setting [7]), 30 s in assay [2] (setting [8]), at least 300 s in assay [2] (setting [9]) and at least 300 s in assay [2] (setting [10]). Besides, the PT is 11.6 s in assay [3] (setting [11]), 11.7 s in assay [3] (setting [12]), 15.8 s in assay [3] (setting [13]) and at least 300 s in assay [3] (setting [14]).

Regarding “chondroitin sulfate [reference compound]”, the “coagulation time of normal blood, extension (in words)” value in assay [1] (addition of 0.01 mg/ml) is on record as “not observed at all to be extended”.

On to “gellan sulfate [compound 1, reference compound]”, for which, in assay [1] (1 mg/ml added), the “coagulation time of normal blood, extension (in words)” value is reported as “not observed to be extended”.

Take gellan sulfate [Example 3]: the “Normal blood coagulation time” value was 58.9 min in assay [1] (setting [4]), 138.8 min in assay [1] (setting [5]), 216.3 min in assay [1] (setting [6]) and at least 600 min in assay [1] (addition concentration 1 mg/ml). The APTT was 49 s in assay [2] (setting [7]), 103.5 s in assay [2] (setting [8]), at least 300 s in assay [2] (setting [9]) and at least 300 s in assay [2] (setting [10]). In addition, the PT in assay [3] (setting [11]) is 11.3 s; in assay [3] (setting [12]) it was 11.8 s; in assay [3] (setting [13]) it was 19.3 s; in assay [3] (setting [14]) it was at least 300 s.

The record behind these values is US20050096294A1, “Novel anti-coagulant” (priority 2003, published 2005).
